IC50 data for eleven compounds are collected here from ChEMBL document CHEMBL1129779, “A novel class of antagonists for metabotropic glutamate receptors, 7-(Hydroxyimino)cyclopropa[b]chromen-1a-carboxylates” (Bioorg Med Chem Lett, 1996).

The target in experiment [1] is T1, Metabotropic glutamate receptor 1 (Homo sapiens, UniProt Q13255). Put plainly: Compound was tested for inhibition of glutamate-evoked (10 uM) [Ca2+] mobilization in mGluR1-alpha expressed-CHO cells. Type of experiment: cell-based.
Experiment [2] addresses T1, Metabotropic glutamate receptor 1. Briefly: Compound was tested for inhibition of glutamate-evoked (10 uM) [Ca2+] mobilization in Metabotropic glutamate receptor 1 expressed-CHO cells; NE: No effect at 1-100 uM. Type of experiment: cell-based.

A word on the IC50: it is the concentration at which inhibition is half-maximal. Read a high IC50 as lower potency.

T1 sequence (Q13255 whole entry): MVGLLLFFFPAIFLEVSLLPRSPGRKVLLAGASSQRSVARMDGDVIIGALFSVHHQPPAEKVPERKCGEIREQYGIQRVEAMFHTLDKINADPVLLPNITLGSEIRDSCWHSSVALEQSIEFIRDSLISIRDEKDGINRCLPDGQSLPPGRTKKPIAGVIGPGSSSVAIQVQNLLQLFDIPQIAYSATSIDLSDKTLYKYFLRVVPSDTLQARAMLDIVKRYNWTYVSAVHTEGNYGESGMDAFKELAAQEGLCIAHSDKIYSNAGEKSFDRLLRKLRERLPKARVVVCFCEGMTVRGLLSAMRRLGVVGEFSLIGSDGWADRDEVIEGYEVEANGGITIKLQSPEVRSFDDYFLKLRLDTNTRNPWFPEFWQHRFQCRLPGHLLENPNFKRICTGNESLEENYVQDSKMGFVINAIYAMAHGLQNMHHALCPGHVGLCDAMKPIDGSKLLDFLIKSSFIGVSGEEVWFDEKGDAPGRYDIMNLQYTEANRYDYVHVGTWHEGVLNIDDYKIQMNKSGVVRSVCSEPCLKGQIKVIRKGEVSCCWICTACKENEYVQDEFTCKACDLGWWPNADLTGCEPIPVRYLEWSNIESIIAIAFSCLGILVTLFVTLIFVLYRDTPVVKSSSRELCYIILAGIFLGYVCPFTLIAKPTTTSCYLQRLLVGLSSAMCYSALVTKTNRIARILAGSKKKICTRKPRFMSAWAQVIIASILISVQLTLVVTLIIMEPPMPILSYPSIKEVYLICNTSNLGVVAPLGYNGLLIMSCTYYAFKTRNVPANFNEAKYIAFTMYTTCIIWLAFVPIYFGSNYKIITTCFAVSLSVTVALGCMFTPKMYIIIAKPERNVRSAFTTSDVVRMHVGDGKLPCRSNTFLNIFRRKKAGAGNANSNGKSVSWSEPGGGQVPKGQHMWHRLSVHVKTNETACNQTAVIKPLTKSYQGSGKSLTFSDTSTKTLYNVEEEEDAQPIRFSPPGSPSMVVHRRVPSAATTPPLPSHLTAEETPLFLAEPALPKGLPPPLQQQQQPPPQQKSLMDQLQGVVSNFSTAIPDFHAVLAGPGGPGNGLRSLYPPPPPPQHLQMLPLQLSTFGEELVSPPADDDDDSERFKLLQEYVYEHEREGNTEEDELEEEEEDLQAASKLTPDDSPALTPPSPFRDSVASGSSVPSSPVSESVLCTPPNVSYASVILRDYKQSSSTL

The compound `CCOC(=O)C12CC1/C(=N\O)c1ccccc1O2` (stereo unspecified) registered an IC50 in experiment [1] of 23 µM.

On to `CN(C(=O)C12CC1/C(=N\O)c1ccccc1O2)c1ccccc1` (stereo unspecified), for which the IC50 in experiment [1] stood at 10 µM.

In experiment [1], `O=C(Nc1ccccc1)C12CC1/C(=N\O)c1ccccc1O2` (stereo unspecified) registered an IC50 of 3 µM. Against the preceding compound, the IC50 is about 3.3-fold lower.

As for `O=C(Nc1ccccc1)c1cc(=O)c2ccccc2o1`, the IC50 result in experiment [2] is “No effect”.

Compound `NC(C(=O)O)c1ccc(C(=O)O)c(O)c1` (stereo unspecified) displayed an IC50 in experiment [1] of 200 µM.

In turn, `CC(N)(C(=O)O)c1ccc(C(=O)O)cc1` (stereo unspecified) registered an IC50 in experiment [1] of 700 µM.

Take `CCOC(=O)C12CC1C(=O)c1ccccc1O2` (stereo unspecified): the IC50 entry in experiment [2] is “No effect”.

For `O=C1c2ccccc2OC2(C(=O)Nc3ccccc3)CC12` (stereo unspecified), the IC50 entry in experiment [2] is given as “No effect”.

As for `CN(C(=O)C12CC1C(=O)c1ccccc1O2)c1ccccc1` (stereo unspecified), the IC50 result in experiment [2] was “No effect”.

As to `CN(C(=O)c1cc(=O)c2ccccc2o1)c1ccccc1`, in experiment [2], the IC50 result is given as “No effect”.

Regarding `CCOC(=O)c1cc(=O)c2ccccc2o1`, the IC50 entry in experiment [2] is “No effect”.
